Series [1] relates to activated T cells (CD4+ T cells from mouse spleen). The experiment in a line: 3H-thymidine uptake in activated T cells. The class given is cell-based, mouse (C57BL/6J). The conditions noted are these: T-cell; mouse spleen CD4+ T cells activated with Dynabeads Mouse T-Activator CD3/CD28; read-out: IC50 (3H-thymidine uptake, proliferation of activated T cells). The protocol: Effect of Test Substance on ^3H-Thymidine Uptake in Activated T Cells
The effect of test substance on ^3H-thymidine uptake by activation was evaluated using T cells from mouse spleen. The spleen was removed from euthanized C57BL/6J mice, and finely sliced, then triturated on a cell strainer (40 μm mesh), and cells were collected by centrifugation. The collected splenocytes were treated with Cold lyser containing 0.17 M NH4Cl for 5 minutes to hemolytically remove red blood cells and then washed. The resulting cells were used as the splenocytes. From the splenocytes, CD4+ T cells were isolated using an EasySep Mouse CD4+ T cell isolation kit (STEMCELL Technologies Inc.). The CD4+ T cells were seeded into 96-well round-bottom plates. To the plates, test substance or Vehicle was added, and Dynabeads Mouse T-Activator CD3/CD28 (Thermo Fisher Scientific Inc.) was added, then the cells were cultured at 37° C. under 5% CO2. After 24 hours of culture, ^3H-Thymidine (PerkinElmer Inc.) diluted with medium was added to each well, then the cells were further cultured at 37° C. under 5% CO2 overnight. To measure ^3H-Thymidine uptake into the nuclei of the cells, the cells were collected into filter plates UniFilter-96 GF/B (PerkinElmer Inc.) using a FilterMate Universal Harvester (PerkinElmer Inc.). The filter plates were placed in a dryer and left still for 2 hours or more. Then, scintillation cocktail MicroScint-O (PerkinElmer Inc.) was added to the plates, and radioactivity was measured with TopCount NXT (PerkinElmer Inc.). With the radioactivity of the test substance-free group set as 100% and the radioactivity of the non-activation group as 0%, the relative value (proliferation rate, % of vehicle) of the radioactivity of each well to which test substance was added was calculated. The value of % of vehicle was incorporated into analysis software Prism (Version 5.0, GraphPad Software), the “Nonlinear Regression Log (inhibitor) vs Reaction Variable Inclination” was selected, and then sigmoid fitting with restrictions of Bottom=0 and Top=100 was performed to calculate 50% inhibitory concentration (IC50).

For series [2], the system named is IFN-α production in mouse splenocytes (pDC activation by CpG-ODN D35). The experiment in a line: IFN-α production in mouse splenocytes stimulated with TLR9 ligand CpG-ODN D35. The conditions noted are these: for IC50: Splenocyte, mouse splenocytes, CpG-ODN D35 1 μM, 24 hours of culture, ELISA; for effect on IFN-α production: test substances added at 1 nM to 300 nM. Type of series: cell-based, mouse (C57BL/6J). The protocol: The test substances were added at concentrations of 1 nM to 300 nM.
Effect of Test Substance on IFN-α Production in Mouse Splenocytes
Production of IFN-α by TLR9 ligand CpG-ODN D35 stimulation activating pDC was evaluated. Splenocytes were prepared from euthanized C57BL/6J mice in the same way as Test Example 1. Splenocytes were seeded into 96-well round-bottom plates, and test substance was added, and then the plates were preincubated for 30 minutes. Then, CpG-ODN D35 (final concentration 1 μM) was added, and the cells were cultured at 37° C. under 5% CO2. After 24 hours of culture, the culture supernatant was collected, and the IFN-α concentration in the supernatant was measured with an ELISA kit (Mouse IFN-alpha Platinum ELISA Kit, eBioscience). The relative value of the IFN-α concentration of each well when the IFN-α production of the test substance-free group was set as 100% and the amount of the non-stimulated group as 0% (IFN-α production rate, % of vehicle) was calculated. The relative value of the IFN-α concentration was incorporated into analysis software Prism (Version 5.0, GraphPad Software), the “Nonlinear Regression Log (inhibitor) vs Reaction Variable Inclination” was selected for each compound, and then sigmoid fitting with restrictions of Bottom=0 and Top=100 was performed to create a graph of the concentration reaction curve and calculate 50% inhibitory concentration (IC50).
A general note: An ELISA detects its analyte on a solid surface through an enzyme-linked reagent.

A short description of series [3]: Pharmacokinetic test of prodrug compounds in mouse. Type of series: in vivo, females, non-fasting). To be noted: female, C57BL/6J; mouse plasma, IV 1 mg/kg of the active compound; read-out: AUClast after IV administration. The protocol: For prodrug compounds, the compounds of Examples 44, 103, and 104 (active compound of these is the compound of Example 41) and the compounds of Examples 89, 94, and 97 (active compound of these is the compound of Example 42), the plasma concentrations of the active compounds after oral administration to mice were measured, and various PK parameters were calculated. The method was as follows:
To C57BL/6J mice (females, non-fasting), the Example compounds were administered and blood sampling was performed under the following conditions.
Intravenous (IV): 1 mg/kg (n=2, 10% HP-β-CD dissolved in Saline/DMSO=95/5, v/v) Oral (PO): 10 mg/kg (n=2, 0.5% HPC dissolved in water)
After blood sampling, plasma was obtained by centrifugation, and to 10 μL of the obtained plasma, an equal amount of DMSO was added. […] The obtained samples were measured and quantitatively analyzed using MassLynx (version 4.1, Waters Corporation) under the following conditions.
From the plasma concentration measurements of the obtained active compound, the following PK parameters were calculated using Moment (Microsoft Excel).
AUClast: Area under plasma concentration-time curve to the last quantifiable time point Cmax: Maximum plasma concentration

Each structure is given as a SMILES string.

Turning to `N[C@@H](Cc1cccc(S(=O)(=O)N2CC(Oc3ccc(F)cc3)(c3ccccc3)C2)c1)C(=O)O` [Example 41, (S)-2-Amino-3-(3-((3-(4-fluorophenoxy)-3-phenylazetidin-1-yl)sulfonyl)phenyl)propanoic acid], in series [1], the IC50 came out at 5.1 nM. Moreover, in series [2], the IC50 turned out to be 21 nM and the “effect on IFN-α production” value is given as “concentration-dependent suppression effects”. For the same compound, in series [3], the AUC(0-t) came out at 728 ng·h/mL.

Turning to `N[C@@H](Cc1cccc(S(=O)(=O)N2CC(Oc3cccc(F)c3)(c3ccccc3)C2)c1)C(=O)O` [Example 42, (S)-2-Amino-3-(3-((3-(3-fluorophenoxy)-3-phenylazetidin-1-yl)sulfonyl)phenyl)propanoic acid], the figures for the IC50 in series [1] and in series [2] were 4.1 nM and 13 nM, respectively. Besides, in series [2], the “effect on IFN-α production” value is on record as “concentration-dependent suppression effects”. In addition, in series [3], the AUC(0-t) turned out to be 499 ng·h/mL.

For the origin of these results see US20210238136A1, “AZETIDINE DERIVATIVE, AND PRODRUG THEREOF” (DAIICHI SANKYO COMPANY, LIMITED, priority 2018, published 2021).
